Conditions: Crystal, Calculated from knudsen effusion weight loss

CC(C)(C)c1ccc2c(c1)-c1nc-2nc2[n-]c(nc3nc(nc4[n-]c(n1)c1ccc(C(C)(C)C)cc41)-c1ccc(C(C)(C)C)cc1-3)c1ccc(C(C)(C)C)cc21.[Cu+2] [copper tetra-4-tert-butylphthalocyanine]
Conditions | vapor or sublimation pressure [kPa]
587 K | 4.737e-06
604 K | 1.852e-05
620 K | 5.892e-05
640 K | 0.0001549
656 K | 0.0004
679 K | 0.0008741
696 K | 0.002084

— the NIST ThermoML archive (doi:10.1016/j.tca.2010.01.019)
